Experimental data published in patent publication US12391679B2, “Benzamide-substituted bicyclic imidazo- and pyrazolo-fused -pyridine, -pyrimide, and -pyridazine compounds for treatment of inflammatory diseases” (ONCO3R Therapeutics BV, priority 2019, dated 2025).

What was measured:
[1] = tested on: Balb/c mice, IL-23 injected ear; experiment: Murine model of psoriatic-like epidermal hyperplasia induced by intradermal injections of IL-23; format: in vivo; conditions: mouse, intradermal IL-23
Experimental: Mouse recombinant IL-23, carrier free (Cat #14-8231) is provided by e-Bioscience (Frankfurt, Germany).
Balb/c mice (female, 18-20 g body weight) were obtained from Janvier Labs (Le Genest-Saint-Isle, France). Mice are kept on a 12 h light/dark cycle. Temperature was maintained at 22° C., food and water are provided ad libitum.
The design of the study was adapted from Rizzo H L. et al. (Rizzo et al. 2011).
On the first day (D1), the mice were shaved around the two ears. For 4 consecutive days (D1 to D4), the mice received a daily intradermal dose of mouse recombinant IL-23 (1 μg/20 μL in PBS/0.1% BSA) in the right pinna ear and 20 μL of PBS/0.1% BSA in the left pinna ear under anesthesia.
From D1 to D5, mice were dosed with test-compound or with vehicle, 1 h prior IL-23 injection.
The thickness of both ears was measured daily with an automatic caliper. Body weight was assessed at initiation and at sacrifice. On fifth day, 2 h after the last dosing, the mice were sacrificed. The pinnae of the ear were cut, excluding cartilage. The pinnae, placed in a vial containing 1 mL of RNAlater® solution.
There were 8 mice per group. The results were expressed as mean±SEM and statistical analysis was performed using one-way ANOVA followed by Dunnett's post-hoc test versus IL-23 vehicle groups.

[2] = tested on: C57BL/6N mice, bleomycin induced pulmonary fibrosis; experiment: Therapeutic bleomycin induced pulmonary fibrosis 21-day mice model; format: in vivo; conditions: mouse, bleomycin 21-day; 10 mg/kg p.o. b.i.d. in PEG200/MC 0.5% 20/80 (v/v); meta-analysis of two pooled identical study runs
Experimental: The aim of the study is to test the efficacy of a test compound at three different doses in a 21-day model of bleomycin induced pulmonary fibrosis in mice.
This study is carried out on C57BL/6N male mice, supplied by Charles River (Calco, Italy), which are acclimatized for at least 5 days in an environment maintained at 22° C., at 55% relative humidity, with 15-20 air changes per hour under light cycles of 12 h. Mice pelleted food and water are provided ad libitum.
The solvent for the test solutions is prepared by adding 0.5 g of hydroxyethylcellulose (Natrosol™) into 500 mL aqua distillate (0.1%) under continuous stirring without heating for 5 h on a magnetic stirrer.
To prepare a solution for intranasal (i.n.) challenge, 0.8 mg/mL stock solutions of bleomycin (Cat #BML-AP302-0010, Enzo Life Sciences, Inc., USA) are thawed and diluted in 330 μL of saline. Prior to i.n. administration, mice are anesthetized i.p.
Finally, test compound solutions are prepared by dissolving the suitable amount of said test compound in PEG 400 or PEG 200 (20% of the final volume) then MC 0.5% (80% of the final volume) to reach final concentrations of 1 mg/mL, 0.3 mg/mL and 0.1 mg/mL, thus yielding compound for a doses of 10 mg/kg, 3 mg/kg and 1 mg/kg. […]
Pulmonary histological changes are assessed using Matsuse modification of Ashcroft score (Ashcroft et al. 1988; Matsuse et al. 1999). […]

## COc1cc(-c2cnc3cc(C(C)(C)C#N)ccn23)cc(OC(F)F)c1C(=O)NC1CC1 [Cpd 19, 4-[7-(1-cyano-1-methyl-ethyl)imidazo[1,2-a]pyridin-3-yl]-N-cyclopropyl-2-(difluoromethoxy)-6-methoxy-benzamide]
[1]; 10 mg/kg p.o. b.i.d.
  ear thickness compared to IL-23 vehicle group: statistically significant decrease

## COc1cc(-c2cnc3cc(C4(C#N)COC4)ccn23)cc(OC(F)F)c1C(=O)NC1CC1 [Cpd 117, 4-[7-(3-cyanooxetan-3-yl)imidazo[1,2-a]pyridin-3-yl]-N-cyclopropyl-2-(difluoromethoxy)-6-methoxy-benzamide]
[1]; 30 mg/kg p.o. b.i.d.
  ear thickness compared to IL-23 vehicle group: statistically significant decrease

## COc1cc(-c2cnc3cc(C4COC4)ccn23)cc(OC(F)F)c1C(=O)NC1CC1 [Cpd 174, N-cyclopropyl-2-(difluoromethoxy)-6-methoxy-4-[7-(oxetan-3-yl)imidazo[1,2-a]pyridin-3-yl]benzamide]
[1]; 3 mg/kg p.o. b.i.d.
  ear thickness compared to IL-23 vehicle group: statistically significant decrease

## COc1cc(-c2cnn3cc(C(C)(C)C#N)ccc23)cc(OC(F)F)c1C(=O)N[C@@H]1C[C@@H]1F [Cpd 219, 4-[6-(1-cyano-1-methyl-ethyl)pyrazolo[1,5-a]pyridin-3-yl]-2-(difluoromethoxy)-N-[(1R,2S)-2-fluorocyclopropyl]-6-methoxy-benzamide]
[2]
  Ashcroft score compared to the vehicle group: statistically significant decrease
